Converted amounts (≈) assume the structure as drawn.

The solubility is how much of the substance goes into solution per volume. A low value points to a poorly soluble substance. A word on the Cmax: it is the peak of the concentration-time curve. As a reminder, the bioavailability is the share of a dose that reaches the circulation, judged against a reference dose that is usually intravenous. Read a low bioavailability as poor availability. For orientation: AUC means concentration integrated over time. For orientation: Tmax means the time at which the peak concentration occurs. As usually defined, the kinetic solubility is solubility judged after dilution from a stock solution rather than from solid. For orientation: AUC(0-inf) means the area under the concentration-time curve extrapolated to infinity. As a reminder, the chromatographic logD is a lipophilicity value derived from retention on a column.

The nature of data set [1]: Solubility of the compound in phosphate buffer at pH 6.5 by HPLC-DAD-MS analysis. Format: physicochemical.
Data set [2] in a line: Solubility of the compound in 0.01 M HCl at pH 2. Format: physicochemical.
The subject of data set [3] is Rattus norvegicus. Description: Cmax in Sprague-Dawley rat at 19 mg/kg, po. In kind it is ADME, organism-based. Further details: dose 19 mg/kg, route oral. The following applies: in vivo.
Data set [4] can be described thus: Oral bioavailability in Sprague-Dawley rat at 19 mg/kg. The following applies: in vivo. Format: ADME, organism-based.
For data set [5], the system named is Rattus norvegicus. Put plainly: AUC (0 to infinity) in Sprague-Dawley rat at 19 mg/kg, po. In kind it is ADME, organism-based, Plasma. Details: time infinity, dose 19 mg/kg, route oral. To be noted: in vivo.
The test system of data set [6] is Rattus norvegicus. Put plainly: Tmax in Sprague-Dawley rat at 19 mg/kg, po. Format: ADME, organism-based. Details: dose 19 mg/kg, route oral. To be noted: in vivo.
Data set [7] can be described thus: Volume of distribution at steady state in Sprague-Dawley rat blood at 4 mg/kg, iv. In kind it is ADME, organism-based. Further details: dose 4 mg/kg, route intravenous. To be noted: read-out: Vdss.
The nature of data set [8]: Volume of distribution at steady state in Sprague-Dawley rat plasma at 4 mg/kg, iv. The following applies: read-out: Vdss. Further details: dose 4 mg/kg, route intravenous. Format: ADME, organism-based.
Data set [9] in a line: Solubility of the compound in phosphate buffer at pH 6.5 by nephlometric analysis. In kind it is physicochemical.
Data set [10] can be described thus: AUC (0 to infinity) in Sprague-Dawley rat at 4 mg/kg, iv. The following applies: plasma. Further details: dose 4 mg/kg, route intravenous, time infinity. Format: ADME, organism-based.
The next data set is described as follows: physchem. To be noted: octanol/water, pH 7.4.
A short description of data set [11]: Plasma concentration in Swiss outbred mouse infected with Plasmodium berghei at 50 mg/kg, po measured at 1 hr. In kind it is ADME, organism-based. Further details: dose 50 mg/kg, route oral.
Data set [12] can be described thus: Plasma concentration in Swiss outbred mouse infected with Plasmodium berghei at 50 mg/kg, po measured at 24 hrs. Format: ADME, organism-based. Further details: dose 50 mg/kg, route oral.
Data set [13] in a line: Plasma concentration in Swiss outbred mouse infected with Plasmodium berghei at 50 mg/kg, po measured at 4 hrs. In kind it is ADME, organism-based. Details: dose 50 mg/kg, route oral.

As for `CNc1nc(NCCCN(C)C)c2sc(-c3cc(C(F)(F)F)cc(C(F)(F)F)c3)cc2n1`, the solubility in data set [1] is 130 µg/mL (≈ 272 µM); in data set [2], 186 µg/mL (≈ 390 µM).

In the data set with Rattus norvegicus [3], `CNc1nc(NCCCN(C)C)c2sc(-c3ccccc3)cc2n1` showed a Cmax of 8 nM. This compound also had a bioavailability in [4] of 34%. The compound further yielded an AUC with Rattus norvegicus [5] of 125 µM·min. Moreover, in the data set on Rattus norvegicus [6], the Tmax is 1.75 h. Further, the Vd is 37 L/kg in data set [7] and 139 L/kg in data set [8]. The solubility in [2] was over 100 µg/mL. This compound yielded a solubility (kinetic) in [9] of over 100 µg/mL. The compound also had an AUC(0-inf) in [10] of 1.28 µM·h. The compound also showed a chromatographic logD in the data set “physchem” of 2.2.

Take `CNc1nc(NCCCN(C)C)c2cc(-c3ccccc3)sc2n1`: the solubility turned out to be 184 µg/mL (≈ 539 µM) in [1] and 216 µg/mL (≈ 633 µM) in [2].

Regarding `CNc1nc(NCCCN(C)C)c2oc(-c3ccccc3)cc2n1`, the solubility was 203 µg/mL (≈ 624 µM) in [1] and 214 µg/mL (≈ 658 µM) in data set [2].

Turning to `CNc1nc(NCCCN(C)C)c2sc(-c3ccc(C(F)(F)F)cc3)cc2n1`, the solubility was 177 µg/mL (≈ 432 µM) in [1] and 240 µg/mL (≈ 586 µM) in data set [2]. This compound came in with a concentration at 1 h in [11] of 410 nM. In data set [12], this compound had a concentration at 24 h of 210 nM. The chromatographic logD in “physchem” turned out to be 4.1. This compound had a concentration at 4 h in data set [13] of 220 nM.

As to `CNc1nc(NCCCN(C)C)c2sc(-c3cccc(C(F)(F)F)c3)cc2n1`, the solubility in data set [1] is 160 µg/mL (≈ 391 µM); in data set [2] it was 180 µg/mL (≈ 440 µM).

`CNc1nc(NCCCN(C)C)c2sc(-c3ccc(C(F)(F)F)nc3)cc2n1`: the solubility in data set [2] was over 100 µg/mL. This compound returned a solubility (kinetic) in data set [9] of 12.5 µg/mL (≈ 30.5 µM). This compound came in with a chromatographic logD in “physchem” of 3.

As to `CNc1nc(NCCCN(C)C)c2sc(-c3cccc(C#N)c3)cc2n1`, in [2], the solubility is over 100 µg/mL. In addition, in data set [9], the solubility (kinetic) amounted to 25 µg/mL (≈ 68.2 µM). This compound also registered a chromatographic logD in the data set “physchem” of 2.9.

In the case of `CNc1nc(NCCCN(C)C)c2sc(-c3ccc(C#N)cc3)cc2n1`, in data set [2], the solubility is over 100 µg/mL. The compound further had a kinetic solubility in [9] of 50 µg/mL (≈ 136 µM).

Compound `CNc1nc(NCCCN(C)C)c2sc(-c3cccc(OC(F)(F)F)c3)cc2n1` displayed a solubility in data set [2] of over 100 µg/mL. In addition, the kinetic solubility in [9] is over 100 µg/mL. In addition, the chromatographic logD in the data set “physchem” amounted to 4.3.

The compound `CNc1nc(NCCCN(C)C)c2sc(-c3ccc(OC(F)(F)F)cc3)cc2n1` registered a solubility in [2] of over 100 µg/mL. In data set [9], the solubility (kinetic) was over 100 µg/mL. In “physchem”, this compound displayed a chromatographic logD of 4.6.

In [2], `CNc1nc(NCCCN(C)C)c2sc(-c3ccc(OC)nc3)cc2n1` registered a solubility of over 100 µg/mL. The compound further yielded a solubility (kinetic) in data set [9] of 25 µg/mL (≈ 67.1 µM). Also, in “physchem”, the chromatographic logD is 2.8.

In data set [11], `CNc1nc(NCCCN(C)C)c2sc(-c3ccc(F)cc3)cc2n1` displayed a concentration at 1 h of 140 nM. This compound registered a concentration at 24 h in [12] of 40 nM. Also, the concentration at 4 h in data set [13] stood at 90 nM.

Compound `CNc1nc(NCCCN(C)C)c2sc(-c3ccc(N)cc3)cc2n1` came in with a solubility in [2] of over 100 µg/mL. This compound also gave a solubility (kinetic) in data set [9] of 12.5 µg/mL (≈ 35.1 µM). The chromatographic logD in the data set “physchem” stood at 2.3.

In [2], `CNc1nc(NCCCN(C)C)c2sc(-c3ccc(NS(C)(=O)=O)cc3)cc2n1` yielded a solubility of over 100 µg/mL. Besides, the solubility (kinetic) in data set [9] was 25 µg/mL (≈ 57.5 µM). In the data set “physchem”, this compound yielded a chromatographic logD of 2.1.

`CNc1nc(NCCCN(C)C)c2sc(-c3ccc(S(C)(=O)=O)cc3)cc2n1` displayed a solubility in data set [2] of over 100 µg/mL. Besides, in data set [9], the solubility (kinetic) is 25 µg/mL (≈ 59.6 µM). The same compound yielded a chromatographic logD in the data set “physchem” of 2.1.

`CNc1nc(NCCCN(C)C)c2sc(-c3ccc(N4CCOCC4)cc3)cc2n1` returned a solubility in [2] of 12.5 µg/mL (≈ 29.3 µM). The same compound displayed a solubility (kinetic) in data set [9] of 12.5 µg/mL (≈ 29.3 µM). For the same compound, the chromatographic logD in “physchem” was 3.

Take `CNc1nc(NCCCN(C)C)c2sc(-c3ccc(N4CCNCC4)cc3)cc2n1`: the solubility in data set [2] is over 100 µg/mL. Moreover, the solubility (kinetic) in [9] was determined as 12.5 µg/mL (≈ 29.4 µM). The compound also gave a chromatographic logD in the data set “physchem” of 3.5.

Turning to `CNc1nc(NCCCN(C)C)c2sc(-c3ccc(-n4cccn4)cc3)cc2n1`, the values for the solubility in data set [1] and in data set [2] were 191 µg/mL (≈ 469 µM) and 217 µg/mL (≈ 532 µM), respectively.

Compound `CNc1nc(NCCCN(C)C)c2sc(-c3ccc(C(F)(F)F)cc3Cl)cc2n1` yielded a solubility in [2] of over 100 µg/mL. In addition, the kinetic solubility in [9] is over 100 µg/mL. The same compound gave a chromatographic logD in the data set “physchem” of 4.5.

On to `CNc1nc(NCCCN(C)C)c2sc(-c3cncnc3)cc2n1`, for which the solubility in [1] came out at 194 µg/mL (≈ 565 µM); in data set [2], 214 µg/mL (≈ 623 µM).

In data set [2], `CNc1nc(NCCCN(C)C)c2sc(-c3ccc4nonc4c3)cc2n1` came in with a solubility of over 100 µg/mL. In data set [9], this compound had a kinetic solubility of 25 µg/mL (≈ 65.2 µM). This compound came in with a chromatographic logD in the data set “physchem” of 3.3.

For `CNc1nc(NCCCN(C)C)c2sc(-c3ccoc3)cc2n1`, the solubility is 203 µg/mL (≈ 612 µM) in data set [1] and 221 µg/mL (≈ 667 µM) in data set [2].

Take `CNc1nc(NCCCN(C)C)c2sc(-c3ccc(C(C)=O)cc3)cc2n1`: the solubility in data set [2] is over 100 µg/mL. Also, in [9], the solubility (kinetic) came out at 12.5 µg/mL (≈ 32.6 µM). Moreover, in the data set “physchem”, the chromatographic logD turned out to be 2.9.

In turn, `CNc1nc(NCCCN(C)C)c2sc(-c3ccc(C(=O)N4CCOCC4)cc3)cc2n1` had a solubility in [2] of over 100 µg/mL. For the same compound, the kinetic solubility in data set [9] came to 25 µg/mL (≈ 55 µM). This compound yielded a chromatographic logD in the data set “physchem” of 2.2.

(Values after ChEMBL document CHEMBL3120127, “2,4-Diaminothienopyrimidines as orally active antimalarial agents” (J Med Chem, 2014).)
